Measurements: ChEMBL document CHEMBL5223109, “The discovery of BMS-737 as a potent, CYP17 lyase-selective inhibitor for the treatment of castration-resistant prostate cancer” (Bioorg Med Chem Lett, 2022)

Key:
[1] = biological target: T1, Steroid 17-alpha-hydroxylase/17,20 lyase (Macaca fascicularis, UniProt Q2XVA1); assay: Inhibition of cynomolgus monkey CYP17A1 lyase activity; format: ADME
T1 sequence (Q2XVA1 whole entry): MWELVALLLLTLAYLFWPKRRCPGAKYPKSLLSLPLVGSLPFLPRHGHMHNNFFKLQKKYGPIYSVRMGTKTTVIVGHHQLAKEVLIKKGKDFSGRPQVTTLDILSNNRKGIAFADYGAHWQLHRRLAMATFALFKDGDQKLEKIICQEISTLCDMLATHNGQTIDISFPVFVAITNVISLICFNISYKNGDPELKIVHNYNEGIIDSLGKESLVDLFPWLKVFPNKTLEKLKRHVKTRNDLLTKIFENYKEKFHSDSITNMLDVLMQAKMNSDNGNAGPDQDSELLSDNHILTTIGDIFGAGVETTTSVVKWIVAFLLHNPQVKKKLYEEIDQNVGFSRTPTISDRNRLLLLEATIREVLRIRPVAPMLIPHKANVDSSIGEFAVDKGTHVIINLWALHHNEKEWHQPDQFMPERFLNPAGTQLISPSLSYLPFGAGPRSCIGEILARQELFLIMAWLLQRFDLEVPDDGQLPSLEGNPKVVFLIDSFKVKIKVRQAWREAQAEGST

[2] = biological target: T2, Steroid 21-hydroxylase (Homo sapiens, UniProt P08686); assay: Inhibition of human CYP21A2; format: ADME
T2 sequence (P08686 whole entry): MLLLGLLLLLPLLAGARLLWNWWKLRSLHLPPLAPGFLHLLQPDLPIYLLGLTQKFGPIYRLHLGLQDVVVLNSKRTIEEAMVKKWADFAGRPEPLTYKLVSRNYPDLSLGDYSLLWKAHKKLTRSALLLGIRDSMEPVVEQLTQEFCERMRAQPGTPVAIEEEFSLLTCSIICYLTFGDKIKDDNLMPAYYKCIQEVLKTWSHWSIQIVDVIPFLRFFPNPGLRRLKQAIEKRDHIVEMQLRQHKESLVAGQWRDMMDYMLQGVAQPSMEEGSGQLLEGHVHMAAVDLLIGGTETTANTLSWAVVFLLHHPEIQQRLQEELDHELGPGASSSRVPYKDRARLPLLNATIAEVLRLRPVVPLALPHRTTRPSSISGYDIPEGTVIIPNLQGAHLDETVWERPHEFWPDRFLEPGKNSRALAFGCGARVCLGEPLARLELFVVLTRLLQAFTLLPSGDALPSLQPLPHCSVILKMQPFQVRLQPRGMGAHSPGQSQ

[3] = biological target: T1, Steroid 17-alpha-hydroxylase/17,20 lyase; assay: In vivo inhibition of CYP17A1 in cynomolgus monkey assessed as change in cortisol level in blood at 1 mg/kg, po measured upto 24 hrs; format: functional, organism-based
[4] = Oral bioavailability in cynomolgus monkey at 1 mg/kg; format: ADME, organism-based, Macaca fascicularis; conditions: in vivo
[5] = Metabolic stability in mouse liver microsome assessed as half-life; format: ADME; conditions: liver microsomes
[6] = biological target: T3, Steroid 17-alpha-hydroxylase/17,20 lyase (Homo sapiens, UniProt P05093); assay: Selectivity ratio for inhibition of human CYP17A1 hydroxylase activity to inhibition of human CYP17A1 lyase activity; format: ADME
T3 sequence (P05093 whole entry): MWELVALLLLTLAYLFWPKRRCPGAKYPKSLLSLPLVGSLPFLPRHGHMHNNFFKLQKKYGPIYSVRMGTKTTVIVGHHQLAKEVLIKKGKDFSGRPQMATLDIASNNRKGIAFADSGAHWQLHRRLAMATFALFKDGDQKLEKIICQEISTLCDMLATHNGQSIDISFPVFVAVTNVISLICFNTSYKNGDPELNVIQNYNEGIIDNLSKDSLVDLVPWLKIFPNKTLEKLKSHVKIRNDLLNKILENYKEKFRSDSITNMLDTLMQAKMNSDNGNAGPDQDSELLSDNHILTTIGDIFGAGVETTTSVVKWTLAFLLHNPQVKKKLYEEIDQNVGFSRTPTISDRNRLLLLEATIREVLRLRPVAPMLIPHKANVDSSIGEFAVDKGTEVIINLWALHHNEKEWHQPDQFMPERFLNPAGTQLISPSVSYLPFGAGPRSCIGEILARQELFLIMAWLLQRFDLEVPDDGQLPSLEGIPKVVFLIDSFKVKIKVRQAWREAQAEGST

[7] = biological target: T4, Cytochrome P450 11B1, mitochondrial (Homo sapiens, UniProt P15538); assay: Inhibition of human CYP11B1; format: ADME
T4 sequence (P15538 whole entry): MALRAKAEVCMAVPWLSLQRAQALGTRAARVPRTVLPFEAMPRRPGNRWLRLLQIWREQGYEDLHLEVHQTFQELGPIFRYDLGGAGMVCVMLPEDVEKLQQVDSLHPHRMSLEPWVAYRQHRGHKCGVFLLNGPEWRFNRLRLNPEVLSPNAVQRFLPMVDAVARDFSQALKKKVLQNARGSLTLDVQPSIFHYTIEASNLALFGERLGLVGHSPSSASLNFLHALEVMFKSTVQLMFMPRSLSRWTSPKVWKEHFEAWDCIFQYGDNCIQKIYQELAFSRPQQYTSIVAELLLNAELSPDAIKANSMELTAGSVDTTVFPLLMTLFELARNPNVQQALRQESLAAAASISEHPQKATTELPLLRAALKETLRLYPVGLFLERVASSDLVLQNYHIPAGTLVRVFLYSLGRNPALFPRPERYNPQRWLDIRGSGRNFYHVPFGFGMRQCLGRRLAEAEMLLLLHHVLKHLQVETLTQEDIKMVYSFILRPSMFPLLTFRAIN

[8] = Inhibition of cynomolgus monkey CYP21A2; format: ADME, Macaca fascicularis
[9] = Metabolic stability in mouse liver microsomes assessed as parent compound remaining; format: ADME, Microsome
[10] = biological target: T5, Cytochrome P450 1A2 (Homo sapiens, UniProt P05177); assay: Inhibition of recombinant human CYP1A2; format: ADME
T5 sequence (P05177 whole entry): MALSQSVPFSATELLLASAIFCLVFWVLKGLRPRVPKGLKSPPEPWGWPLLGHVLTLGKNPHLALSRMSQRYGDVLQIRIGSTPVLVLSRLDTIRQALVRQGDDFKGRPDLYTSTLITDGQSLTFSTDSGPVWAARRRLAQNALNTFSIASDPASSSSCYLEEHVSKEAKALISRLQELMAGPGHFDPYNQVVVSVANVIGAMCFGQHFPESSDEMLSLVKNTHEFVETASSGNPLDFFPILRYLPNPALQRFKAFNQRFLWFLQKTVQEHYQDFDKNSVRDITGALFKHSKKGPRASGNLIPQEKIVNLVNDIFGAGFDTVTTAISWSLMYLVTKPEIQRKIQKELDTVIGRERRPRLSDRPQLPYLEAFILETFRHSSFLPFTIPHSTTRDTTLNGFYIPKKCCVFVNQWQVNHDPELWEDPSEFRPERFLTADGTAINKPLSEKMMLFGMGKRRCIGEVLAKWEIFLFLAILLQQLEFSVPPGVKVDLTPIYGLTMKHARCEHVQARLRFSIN

[11] = Metabolic stability in cynomolgus monkey liver microsomes assessed as parent compound remaining relative to control; format: ADME, Macaca fascicularis, Microsome
[12] = biological target: T1, Steroid 17-alpha-hydroxylase/17,20 lyase; assay: In vivo inhibition of CYP17A1 in cynomolgus monkey assessed as decrease in testosterone level in blood at 1 mg/kg, po measured at 8 hrs; format: functional, organism-based
[13] = Metabolic stability in dog liver microsomes assessed as parent compound remaining relative to control; format: ADME, Canis lupus familiaris, Microsome

Nc1ncncc1-c1ccnc2c1cnn2-c1ccc(F)cc1
IC50 [1]: 6 nM | IC50 [2]: > 10000 nM | inhibition (INH) [3]: Not Active | bioavailability [4]: 100% | half-life [5]: 35 min | Ratio [6]: 11 | IC50 [7]: 2610 nM | IC50 [8]: > 10000 nM | Stability [9]: 85% | IC50 [10]: > 40000 nM | Stability [11]: 96% | Activity [12]: 43 ng/dL | Stability [13]: 86%
